This note sets out measurements from ChEMBL document CHEMBL3784920, “Synthesis and Pharmacological Evaluation of Novel Adenine-Hydrogen Sulfide Slow Release Hybrids Designed as Multitarget Cardioprotective Agents” (J Med Chem, 2016).

A short description of series [1]: Induction of H2S release in potassium phosphate buffer at pH 7.4 after 15 mins by methylene-blue assay. Particulars: pH 7.4, 0.25 h. It is filed as physicochemical.
The subject of series [2] is Oryctolagus cuniculus. Description: Toxicity in New Zealand white rabbit myocardial ischemia/reperfusion injury model assessed as mean blood pressure at 3.58 umol/kg, administered as single bolus dose at 20 mins of sustained ischemia (reference value: 64 +/- 5 mmHg). Format: organism-based. Particulars: in vivo.
The subject of series [3] is Oryctolagus cuniculus. Description: Toxicity in New Zealand white rabbit myocardial ischemia/reperfusion injury model assessed as heart rate at 3.58 umol/kg, administered as single bolus dose at 20 mins of sustained ischemia (reference value: 276 +/- 9 bpm). Particulars: in vivo. It is filed as organism-based.
In series [4] the test system is Oryctolagus cuniculus. Description: Toxicity in New Zealand white rabbit assessed as baseline heart rate at 1.79 umol/kg, administered as single bolus dose (reference value: 269 +/- 10 bpm). Particulars: in vivo. Format: organism-based.
In series [5] the test system is Oryctolagus cuniculus. Description: Toxicity in New Zealand white rabbit myocardial ischemia/reperfusion injury model assessed as mean blood pressure at 1.79 umol/kg, administered as single bolus dose at 180 mins of reperfusion (reference value: 60 +/- 4 mmHg). Format: organism-based. The note with it: in vivo, iv, 3 h.
In series [6] the test system is Oryctolagus cuniculus. Description: Toxicity in New Zealand white rabbit myocardial ischemia/reperfusion injury model assessed as heart rate at 1.79 umol/kg, administered as single bolus dose at 20 mins of sustained ischemia (reference value: 276 +/- 9 bpm). Particulars: in vivo. Format: organism-based.
The test system of series [7] is Oryctolagus cuniculus. Description: Toxicity in New Zealand white rabbit assessed as baseline mean blood pressure at 1.79 umol/kg, administered as single bolus dose in presence of SPT (reference value: 74 +/- 5 mmHg). Format: organism-based. Particulars: in vivo.
Series [8] has as its system Oryctolagus cuniculus. Description: Toxicity in New Zealand white rabbit myocardial ischemia/reperfusion injury model assessed as mean blood pressure at 3.58 umol/kg, administered as single bolus dose at 180 mins of reperfusion (reference value: 60 +/- 4 mmHg). Format: organism-based. Particulars: in vivo, 3 h.
Series [9] has as its system Oryctolagus cuniculus. Description: Toxicity in New Zealand white rabbit assessed as baseline heart rate at 1.79 umol/kg, administered as single bolus dose in presence of non selective adenosine receptor inhibitor SPT (reference value: 269 +/- 10 bpm). It is filed as organism-based. Particulars: in vivo.
Series [10] concerns Oryctolagus cuniculus. Description: Toxicity in New Zealand white rabbit myocardial ischemia/reperfusion injury model assessed as mean blood pressure at 1.79 umol/kg, administered as single bolus dose at 180 mins of reperfusion in presence of SPT (reference value: 60 +/- 4 mmHg). It is filed as organism-based. Particulars: in vivo, 3 h.
Series [11] concerns Oryctolagus cuniculus. Description: Increase in PLN phosphorylation at Ser16/Thr17 in tissue from ischemic area of myocardium in New Zealand white rabbit myocardial ischemia/reperfusion injury model at 1.79 umol/kg administered as single bolus dose at 10th min of reperfusion by Western blot analysis relative to control. Format: functional, organism-based. A general note: A western blot detects proteins with antibodies after separation by electrophoresis.

Series [12] relates to Oryctolagus cuniculus. Description: Toxicity in New Zealand white rabbit assessed as heart weight at 3.58 umol/kg, administered as single bolus dose (reference value: 7.2 +/- 0.3 g). Format: organism-based. Particulars: in vivo.
In series [13] the test system is Oryctolagus cuniculus. Description: Toxicity in New Zealand white rabbit assessed as baseline mean blood pressure at 3.58 umol/kg, administered as single bolus dose (reference value: 74 +/- 5 mmHg). Particulars: in vivo. It is filed as organism-based.
Series [14] has as its system Oryctolagus cuniculus. Description: Toxicity in New Zealand white rabbit myocardial ischemia/reperfusion injury model assessed as heart rate at 1.79 umol/kg, administered as single bolus dose at 180 mins of reperfusion in presence of non selective adenosine receptor inhibitor SPT (reference value: 254 +/- 11 bpm). Format: organism-based. Particulars: in vivo, 3 h.
Series [15] deals with Oryctolagus cuniculus. Description: Cardioprotective activity in New Zealand white rabbit myocardial ischemia/reperfusion injury model assessed as reduction in infarct size at 1.79 umol/kg, administered as single bolus dose at 20 mins before sustained ischemia by TTC staining in presence of non selective adenosine receptor inhibitor SPT (reference value: 47.9 +/- 0.7 %). Further details: scale not given: the % may be the effect or the level left. Format: functional, Myocardium.

For series [16], the system named is Oryctolagus cuniculus. Description: Increase in VASP phosphorylation at Ser239 in tissue from ischemic area of myocardium in New Zealand white rabbit myocardial ischemia/reperfusion injury model at 1.79 umol/kg administered as single bolus dose at 10th min of reperfusion by Western blot analysis. It is filed as functional, organism-based.
The test system of series [17] is Oryctolagus cuniculus. Description: Toxicity in New Zealand white rabbit myocardial ischemia/reperfusion injury model assessed as heart rate at 3.58 umol/kg, administered as single bolus dose at 180 mins of reperfusion (reference value: 254 +/- 11 bpm). Format: organism-based. Particulars: in vivo, 3 h.
Series [18] concerns Oryctolagus cuniculus. Description: Toxicity in New Zealand white rabbit assessed as heart weight at 1.79 umol/kg, administered as single bolus dose in presence of non selective adenosine receptor inhibitor SPT (reference value: 7.2 +/- 0.3 g). Particulars: in vivo. It is filed as organism-based.
Series [19] concerns Oryctolagus cuniculus. Description: Toxicity in New Zealand white rabbit assessed as baseline heart rate at 3.58 umol/kg, administered as single bolus dose (reference value: 269 +/- 10 bpm). Format: organism-based. Particulars: in vivo.
The subject of series [20] is Oryctolagus cuniculus. Description: Toxicity in New Zealand white rabbit myocardial ischemia/reperfusion injury model assessed as heart rate at 1.79 umol/kg, administered as single bolus dose at 180 mins of reperfusion (reference value: 254 +/- 11 bpm). Format: organism-based. The note with it: in vivo, 3 h.
The subject of series [21] is RLF-6. Description: Induction of H2S release in RLF-6 cells assessed as cGMP accumulation at 250 uM after 5 mins by enzyme immuno assay. Format: functional, cell-based. The note with it: Rattus norvegicus.
For series [22], the system named is Oryctolagus cuniculus. Description: Toxicity in New Zealand white rabbit assessed as heart weight at 1.79 umol/kg, administered as single bolus dose (reference value: 7.2 +/- 0.3 g). Format: organism-based. The note with it: in vivo.
The subject of series [23] is Oryctolagus cuniculus. Description: Toxicity in New Zealand white rabbit myocardial ischemia/reperfusion injury model assessed as heart rate at 1.79 umol/kg, administered as single bolus dose at 20 mins of sustained ischemia in presence of non selective adenosine receptor inhibitor SPT (reference value: 276 +/- 9 bpm). The note with it: in vivo. It is filed as organism-based.

Series [24] deals with Oryctolagus cuniculus. Description: Toxicity in New Zealand white rabbit myocardial ischemia/reperfusion injury model assessed as mean blood pressure at 1.79 umol/kg, administered as single bolus dose at 20 mins of sustained ischemia in presence of non selective adenosine receptor inhibitor SPT (reference value: 64 +/- 5 mmHg). The note with it: in vivo, iv. Format: organism-based.

Series [25] relates to Oryctolagus cuniculus. Description: Cardioprotective activity in New Zealand white rabbit myocardial ischemia/reperfusion injury model assessed as reduction in infarct size at 3.58 umol/kg, administered as single bolus dose at 20th min of sustained ischemia by TTC staining (reference value: 47.9 +/- 0.7 %). It is filed as functional, Myocardium. Further details: scale not given: the % may be the effect or the level left.

Series [26] relates to Oryctolagus cuniculus. Description: Cardioprotective activity in New Zealand white rabbit myocardial ischemia/reperfusion injury model assessed as reduction in infarct size at 1.79 umol/kg, administered as single bolus dose at 20th min of sustained ischemia by TTC staining (reference value: 47.9 +/- 0.7 %). Further details: scale not given: the % may be the effect or the level left. Format: functional, Myocardium.

For series [27], the system named is Oryctolagus cuniculus. Description: Toxicity in New Zealand white rabbit assessed as baseline mean blood pressure at 1.79 umol/kg, administered as single bolus dose (reference value: 74 +/- 5 mmHg). It is filed as organism-based. The note with it: in vivo.
The subject of series [28] is Oryctolagus cuniculus. Description: Toxicity in New Zealand white rabbit myocardial ischemia/reperfusion injury model assessed as mean blood pressure at 1.79 umol/kg, administered as single bolus dose at 20 mins of sustained ischemia (reference value: 64 +/- 5 mmHg). It is filed as organism-based. Particulars: in vivo.
Series [29] can be described thus: Induction of H2S release in ammonium carbonate buffer at 100 uM at pH 7.4 by mass spectrometry. It is filed as physicochemical. Particulars: pH 7.4, 100 µM.
Series [30] can be described thus: Induction of H2S release in ammonium carbonate buffer at 100 uM at pH 7.4 by mass spectrometry in presence of glutathione. Format: physicochemical. The note with it: pH 7.4, 100 µM.
Series [31] is described as follows: Induction of H2S release in potassium phosphate buffer at 20 uM at pH 7.4 by Amperometric method. Format: physicochemical. Particulars: pH 7.4, 20 µM.
Series [32] is described as follows: Induction of H2S release in potassium phosphate buffer at 100 uM at pH 7.4 by Amperometric method in presence of glutathione. It is filed as physicochemical. Particulars: pH 7.4, 100 µM.
A short description of series [33]: Induction of H2S release in potassium phosphate buffer at 100 uM at pH 7.4 by Amperometric method. Particulars: pH 7.4, 100 µM. Format: physicochemical.
Series [34] deals with RLF-6. Description: Induction of H2S release in RLF-6 cells assessed as cGMP accumulation after 5 mins by enzyme immuno assay. Format: functional, cell-based. The note with it: Rattus norvegicus.

Calls of active or inactive are those of the source. No cut-off for these calls is given here.

For the molecule `CC1(C)O[C@@H]2[C@H](O1)[C@@H](COc1ccc(-c3cc(=S)ss3)cc1)O[C@H]2n1cnc2c(N)ncnc21`, the Activity result in series [1] was “Dose-dependent effect”.

On to `NC(=S)c1ccc(OCCCCn2cnc3c(N)ncnc32)cc1`, for which the Activity in series [2] is 40 mmHg; in series [3], 242 bpm; in [4], 266 bpm; in series [5], 80 mmHg; in series [6], 276 bpm; in series [7] it was 81 mmHg. For the same molecule, the Activity is 52 mmHg in series [8]; 278 bpm in [9]; 76 mmHg in [10]; 7.4 g in series [12]; 78 mmHg in series [13]; 276 bpm in series [14]. For the same molecule, the Activity in [15] was 16.9%; in series [17], 258 bpm; in series [18], 7.5 g; in series [19], 285 bpm; in series [20] it was 255 bpm; in series [22], 7.2 g. Moreover, the Activity in [23] was 270 bpm; in series [24], 76 mmHg; in series [1] it was “Dose-dependent effect”; in [25], 26.7%; in [26], 16.6%; in [27] it was 90 mmHg. In addition, the Activity in [28] is given as 82 mmHg. Further, the outcome in series [11], in [16] and in [21] was Active.

Consider `CC1(C)O[C@@H]2[C@H](O1)[C@@H](COc1ccc(C(N)=S)cc1)O[C@H]2n1cnc2c(N)ncnc21`, for which the outcome in [21] was Active. Besides, the Activity entry in [1] is “Dose-dependent effect”.

For the molecule `[Na+].[SH-]` [SODIUM HYDROSULFIDE], the Activity in [4] was found to be 273 bpm; in series [5] it was 68 mmHg; in series [6], 268 bpm; in [20], 262 bpm; in [22], 7.1 g; in series [27], 81 mmHg. The Activity in [28] turned out to be 76 mmHg.

Consider `Nc1ncnc2c1ncn2[C@@H]1O[C@H](COc2ccc(-c3cc(=S)ss3)cc2)[C@@H](O)[C@H]1O`, for which the Activity result in series [1] is “Dose-dependent effect”.

With `Nc1ncnc2c1ncn2CCCCOc1ccc(-c2cc(=S)ss2)cc1`, the Activity entry in [1] is reported as “Dose-dependent effect”.

As to `NC(=S)c1ccc(OC[C@H]2O[C@@H](n3cnc4c(N)ncnc43)[C@H](O)[C@@H]2O)cc1`, the Activity in series [29] was 0.8 µM/min; in series [30], “Not Active”; in series [4], 258 bpm; in series [5], 76 mmHg; in series [31] it was “Not Active”; in series [6], 256 bpm. For the same molecule, the Activity is on record as 86 mmHg in series [7]; 262 bpm in series [9]; 77 mmHg in [10]; “Not Active” in series [32]; 260 bpm in series [14]; 18.3% in series [15]. The Activity was 7.2 g in series [18]; 256 bpm in [20]; 7.6 g in series [22]; 260 bpm in [23]; 71 mmHg in series [24]; “Dose-dependent effect” in series [1]. For the same molecule, the Activity entry in [33] is “Active”; in series [26] it was 20.1%; in series [27], 82 mmHg; in [28] it was 83 mmHg. Besides, the outcome in series [11], in [16] and in series [21] was Active.

Turning to `NC(=S)c1ccc(O)cc1`, the result in series [21] was Active. Besides, the Activity in series [26] worked out at 24.9%.

Consider `Nc1ncnc2c1ncn2[C@@H]1O[C@H](CO)[C@@H](O)[C@H]1O`, for which the result in series [34] was inactive.

Consider `Nc1ncnc2c1ncn2CCCCO`, for which the outcome in [34] was inactive. For the same molecule, the Activity in [4] is 275 bpm; in [5], 90 mmHg; in series [6] it was 266 bpm; in [20], 270 bpm; in series [22], 7.3 g; in series [26], 32.4%. The Activity amounted to 95 mmHg in series [27] and 88 mmHg in series [28].
